{"source": "patent US9370537B2", "about": "“Compositions and methods for reducing inflammation” (Cerule, LLC, priority 2009, dated 2016)", "experiment": "Case report: menstrual cramps", "assay_type": "in vivo, human", "conditions": "person, single dose", "procedure": "The anti-inflammatory effect of the 1117 fraction is evidenced by the following: • 1. A person experienced moderate to severe muscle pain after exercising. The person was in otherwise good health, but would consume four Advil after playing tennis. […] A person in good health and with regular menstruation typically experienced a day during menstruation with moderate to severe menstrual cramps. On one occasion, the painful cramps were so severe that they were not relieved by 1 hour heat or 1000 mg Tylenol. […] The relief happened within 5-10 minutes after consumption, and lasted 8 hours. • 3. A person in good health experienced severe, throbbing muscle pain after a 1-hour session of deep tissue massage. The pain was relieved within 30 minutes after consuming a single dose of 500 mg the 1117 fraction.", "data": [{"molecule": "CC(=O)Nc1ccc(O)cc1", "note": "[Tylenol]", "values": [{"measurement": "effect on severe menstrual cramps and pain", "value": "not relieved"}]}]}
